Assay results published in patent US6399560B1, “Biocide and biocidal cloth containing a metal pyridinethione and additional biocide” (Novapharm Research (Australia) Pty Ltd., priority 1997, dated 2002).
Like-named read-outs stand apart in the source and are kept apart here.

Key:
[1] = test system: gram positive microorganisms; conditions: cited from earlier work
gram negative bacteria = conditions: cited from earlier work
Pseudomonas Aeruginosa = assay: Effect of biocide-impregnated fabric on Pseudomonas Aeruginosa population; type: cell-based; conditions: zinc pyridinethione 0.85%, dichlorophen 0.85%, combination 0.5% + 0.5% of dry fabric weight
From the text: A biocidal cloth according to the invention was subjected to a standard quantitative test for microorganisms, “Assessment of Antibacterial Finishes on Textile Materials”: Test Method AATCC 100-1993. This test is specifically designed for the assessment of the biocidal properties of fabric treatments. These treatments are designed to kill microorganisms within the fabric, rather than on surfaces which come into contact with the fabric.
The weights are given relative to the weight of dry fabric.

[2] = cited from earlier work; for Oxidising Agents: compatibility with oxidising agents; for Reducing Agents: compatibility with reducing agents
[3] = acute toxicity, cited from earlier work; for LD50 Subcut: subcutaneous
[4] = in vivo; cited from earlier work
Fish = conditions: in vivo; cited from earlier work
[5] = cited from earlier work

| Compound | Effectiveness against gram positive [1] | Effectiveness against gram negative (gram negative bacteria) | Change in bacterial population, DAY 1 (positive = increase, negative = decrease) (Pseudomonas Aeruginosa) | Change in bacterial population, DAY 2 (positive = increase, negative = decrease) (Pseudomonas Aeruginosa) | Oxidising Agents [2] | Reducing Agents [2] | LD 50 IV [3] | LD50 Dermal [3] | LD50 Oral [3] | LD50 Subcut [3] | Teratogenicity [4] | Fish Toxicity (Fish) | Irritancy dermal ([5]; in vivo) | Irritancy eye ([5]; in vivo) | Irritancy dermal ([5]; dermal / skin) | Irritancy dermal ([5]; dermal / skin, listed as zinc pyridinethione) | Irritancy eye ([5]; eye) | Irritancy eye ([5]; eye, listed as zinc pyridinethione) |
| --- | --- | --- | --- | --- | --- | --- | --- | --- | --- | --- | --- | --- | --- | --- | --- | --- | --- | --- |
| Oc1cc(Cl)ccc1Oc1ccc(Cl)cc1Cl [Triclosan, triclosan] | particularly effective | some grain negative activity |  |  |  |  |  |  |  |  |  |  |  |  |  |  |  |  |
| Oc1ccc(Cl)cc1Cc1cc(Cl)ccc1O [DICHLOROPHEN, dichlorophen] | particularly effective | some grain negative activity | +0.439 | +2.12 | incompatible | no effect | 17 mg/kg | 5000 mg/kg | 3300 mg/kg | >3000 mg/kg | no effect | 23 mg/lt | Slight dermal | Moderate eye |  |  |  |  |
| zinc pyridinethione | effective | limited effectiveness | +0.845 | +0.35 | decomposes | decomposes | 10 mg/kg | 100 mg/kg | 160 mg/kg | 730 mg/kg | reduced wt |  |  |  | Moderate dermal | mildly irritating | Severe eye | severely so |
